# Measurements from PMC6271298, “Pharmacophore Generation from a Drug-like Core Molecule Surrounded by a Library Peptide via the 10BASEd-T on Bacteriophage T7” (Molecules, 2014).
# Test system: Sal-conjugated peptide-streptavidin complex
# Assay: Competitive binding assay with biotin (fluorescence polarization)
# Settings: various concentrations of biotin; 20 nM peptide (4 pmol) and 15 μM streptavidin (3 nmol); 50 mM Tris-HCl, pH 8.0, 150 mM NaCl, 1 mM TCEP-NaOH
# Experimental: (B) Competitive binding assay. Biotin as a competitor was mixed with the Sal-conjugated peptide-streptavidin complex.
# Fluorescence polarization was measured with a HYBRID-3000ES (Photoscience, Tokyo, Japan) equipped with appropriate filters (Ex. 480 nm and Em. 535/40 nm). The Sal-conjugated fluorescent peptide (4 pmol) was incubated with various concentrations of streptavidin, NeutrAvidin, or bovine serum albumin (BSA) in tris-buffered saline (50 mM Tris-HCl, pH 8.0, 150 mM NaCl) supplemented with 1 mM TCEP-NaOH at 30 °C. Concentration of the fluorescent peptide was determined by absorption coefficient at 495 nm. NeutrAvidin® and BSA were purchased from Thermo Scientific and Nacalai tesque, respectively. Concentrations of streptavidin and NeutrAvidin were determined by absorption coefficient at 280 nm. Concentration of BSA was determined by Bradford protein assay (Bio-Rad). Klotz plot was generated by GraphPad Prism software 6.0 (GraphPad Software, San Diego, CA, USA), and the sigmoid curve was fitted with non-linear least squares analysis to obtain the dissociation constant. […] For the competitive binding assay, various concentrations of biotin were added to the solution containing Sal-conjugated peptide-streptavidin complex (4 pmol of the peptide and 3 nmol of streptavidin; 20 nM and 15 μM, respectively). Biotin was purchased from New England Biolabs (Ipswich, MA, USA).
smiles,measurement,value
O=C(O)CCCC[C@@H]1SC[C@@H]2NC(=O)N[C@@H]21 [biotin],disruption of Sal-conjugated peptide-streptavidin interaction by biotin,fully disrupted
